Values after ≈ are worked out from the molar mass of the structure shown. Marks after values point to notes of the source that are not given here.
Experiments:
APEC O1 = assay type: cell-based, avian pathogenic Escherichia coli (APEC); conditions: APEC O1, M63 media; MIC/MBC
[1] = tested on: intracellular APEC O78 in Caco-2 cells; experiment: Intracellular survival assay (cidal SMs); conditions: O78, Caco-2, 6 h treatment; superscript = multiple of MIC
[2] = tested on: intracellular APEC O2 in Caco-2 cells; experiment: Intracellular survival assay (cidal SMs); conditions: O2, Caco-2, 6 h treatment; superscript = multiple of MIC
APEC O8 = assay type: cell-based, avian pathogenic Escherichia coli (APEC); conditions: APEC O8, M63 media; MIC/MBC
Rif^r APEC O78 = experiment: In vivo efficacy of growth inhibitors in APEC infected broiler chickens; conditions: for reduction of average APEC load in internal organs: average of liver, lung and kidney; for reduction of average APEC load in internal organs / reduction of APEC load, Heart / reduction of APEC load, Kidney / reduction of APEC load, Liver / reduction of APEC load, Lung: vs untreated control; for reduction of APEC induced mortality: oral gavage twice a day, 5 days, untreated mortality (58.34%) normalized to 100%; for reduction of APEC lesions severity (%), Air-sacs (airsacculitis) / reduction of APEC lesions severity (%), Heart (pericarditis) / reduction of APEC lesions severity (%), Liver (perihepatitis) / reduction of APEC lesions severity (%), Lung (lung congestion): untreated control = 100%; for Body weight gain (BWG): weight of live chickens before necropsy minus weight before treatment
[3] = tested on: biofilm embedded APEC O78; experiment: MBEC High-throughput assay; assay type: cell-based, avian pathogenic Escherichia coli (APEC); conditions: biofilm embedded APEC O78; superscript = multiple of MIC (footnote)
Method: Effect against biofilm embedded APEC. The effect of cidal SMs against biofilm embedded APEC was determined using MBEC High-throughput (HTP) assay (Innovotech Inc., AB, Canada). Briefly, 150 µL of 0.05 OD600 adjusted APEC O78 culture was aliquoted into each well of the MBEC device containing polystyrene pegs and incubated at 37° C. for 36 h in LB media under stationary condition. […] The plate was incubated in the dark for 18 h at 37° C. with rotation at 110 rpm. The DMSO (1%) and M63 media were used as positive and negative controls, respectively. Following incubation, MIC of SMs in challenged plate was recorded. The SMs exposed pegs were then transferred to a new 96-well plate containing PBS and sonicated for 30 mins (Aquasonic ultrasonic cleaner, VWR) to disrupt the biofilm. […] Biofilm embedded APEC bacteria were enumerated and minimum biofilm eradication concentration (MBEC) of […] were determined. Two independent experiments were conducted.

APEC O35 = assay type: cell-based, avian pathogenic Escherichia coli (APEC); conditions: APEC O35, M63 media; MIC/MBC
[4] = tested on: intracellular APEC O78, O2, and O1 in infected Caco-2, HD11, and THP1 cells; experiment: Intracellular survival assay (cidal SMs), summary over serotypes and cells; conditions: overall ranking
APEC O15 = assay type: cell-based, avian pathogenic Escherichia coli (APEC); conditions: APEC O15, M63 media; MIC/MBC
APEC O18 = assay type: cell-based, avian pathogenic Escherichia coli (APEC); conditions: APEC O18, M63 media; MIC/MBC
APEC O78 [5] = assay type: cell-based, avian pathogenic Escherichia coli (APEC); conditions: APEC O78, M63 media; for MIC: MIC/MBC; for MBC: cell prints MIC/MBC
[6] = tested on: intracellular APEC O78 in HD11 cells; experiment: Intracellular survival assay (cidal SMs); conditions: O78, HD11, 6 h treatment; superscript = multiple of MIC
[7] = tested on: intracellular APEC O1 in Caco-2 cells; experiment: Intracellular survival assay (cidal SMs); conditions: O1, Caco-2, 6 h treatment; superscript = multiple of MIC
[8] = tested on: intracellular APEC O2 in HD11 cells; experiment: Intracellular survival assay (cidal SMs); conditions: O2, HD11, 6 h treatment; superscript = multiple of MIC
[9] = tested on: intracellular APEC O1 in HD11 cells; experiment: Intracellular survival assay (cidal SMs); conditions: O1, HD11, 6 h treatment; superscript = multiple of MIC
[10] = tested on: intracellular APEC O1 in THP-1 cells; experiment: Intracellular survival assay (cidal SMs); conditions: O1, THP-1, 6 h treatment; superscript = multiple of MIC
[11] = tested on: intracellular APEC O78 in THP-1 cells; experiment: Intracellular survival assay (cidal SMs); conditions: O78, THP-1, 6 h treatment; superscript = multiple of MIC
[12] = tested on: intracellular APEC O2 in THP-1 cells; experiment: Intracellular survival assay (cidal SMs); conditions: O2, THP-1, 6 h treatment; superscript = multiple of MIC
APEC O78 [13] = experiment: Loss of 260/280 nm absorbing materials assay; assay type: cell-based, avian pathogenic Escherichia coli (APEC); conditions: 2X MBC, 1 h, *P<0.05 vs DMSO; for Absorbance 260: 260 nm absorbing material in supernatant; for Absorbance 280: 280 nm absorbing material in supernatant
APEC O2-211 = assay type: cell-based, avian pathogenic Escherichia coli (APEC); conditions: APEC O2-211, M63 media; MIC/MBC
APEC O78-53 = assay type: cell-based, avian pathogenic Escherichia coli (APEC); conditions: APEC O78-53, M63 media; MIC/MBC
APEC O1-63 = assay type: cell-based, avian pathogenic Escherichia coli (APEC); conditions: APEC O1-63, M63 media; MIC/MBC
APEC O78 [14] = experiment: Confocal microscopy bacterial cytological profiling; assay type: cell-based, avian pathogenic Escherichia coli (APEC); conditions: 2X MBC
Method: Confocal and scanning electron microscopy. Confocal microscopy was used for bacterial cytological profiling (BCP) to identify the cellular pathways targeted by SMs as described previously. […] After incubation, treated cultures were centrifuged, washed, and resuspended in 100 μL PBS. […] Cultures were then centrifuged, washed, and resuspended in PBS to 1⁄10th volume of the original cultures.

APEC O115 = assay type: cell-based, avian pathogenic Escherichia coli (APEC); conditions: APEC O115, M63 media; MIC/MBC
APEC O2 = assay type: cell-based, avian pathogenic Escherichia coli (APEC); conditions: APEC O2, M63 media; MIC/MBC
APEC O109 = assay type: cell-based, avian pathogenic Escherichia coli (APEC); conditions: APEC O109, M63 media; MIC/MBC

COc1ccc(CNCc2cccc(C(F)(F)F)c2)cc1OCC(O)CN1CCCC1 (stereo not shown) [SM7]
MBC (APEC O1): 100 µM (≈ 43.8 µg/mL) | MIC (APEC O1): 50 µM (≈ 21.9 µg/mL) | SMs intracellular APEC clearance concentration [1]: 100^c µM | SMs intracellular APEC clearance concentration [2]: 100^c µM | MBC (APEC O8): 200 µM (≈ 87.7 µg/mL) | MIC (APEC O8): 100 µM (≈ 43.8 µg/mL) | reduction of average APEC load in internal organs (Rif^r APEC O78; heart): 2.6 logs | cumulative lesions score (Rif^r APEC O78; liver, heart, lung and air-sacs, untreated 6.2): 2.4 | reduction of APEC induced mortality (Rif^r APEC O78): 71.42% | reduction of APEC lesions severity (%), Air-sacs (airsacculitis) (Rif^r APEC O78): 52.9% | reduction of APEC lesions severity (%), Heart (pericarditis) (Rif^r APEC O78): 60% | reduction of APEC lesions severity (%), Liver (perihepatitis) (Rif^r APEC O78): 60% | reduction of APEC lesions severity (%), Lung (lung congestion) (Rif^r APEC O78): 83.3% | effect on BWG of chickens (Rif^r APEC O78; vs non-treated and non-infected chickens): indistinguishable BWG | reduction of APEC load, Heart (Rif^r APEC O78): 2.3 log CFU/g of tissues | reduction of APEC load, Kidney (Rif^r APEC O78): 3.2 log CFU/g of tissues | reduction of APEC load, Liver (Rif^r APEC O78): 2.5 log CFU/g of tissues | reduction of APEC load, Lung (Rif^r APEC O78): 2.4 log CFU/g of tissues | Body weight gain (BWG) (Rif^r APEC O78): 261.30±20.43 | MBEC [3]: 50^b µM | MBC (APEC O35): 50 µM (≈ 21.9 µg/mL) | MIC (APEC O35): 25 µM (≈ 11 µg/mL) | effectiveness in clearing intracellular APEC serotypes in all tested cells [4]: most effective | MBC (APEC O15): 50 µM (≈ 21.9 µg/mL) | MIC (APEC O15): 50 µM (≈ 21.9 µg/mL) | MBC (APEC O18): 100 µM (≈ 43.8 µg/mL) | MIC (APEC O18): 50 µM (≈ 21.9 µg/mL) | MIC (APEC O78 [5]): 25 µM (≈ 11 µg/mL) | MBC (APEC O78 [5]): 50 µM (≈ 21.9 µg/mL) | SMs intracellular APEC clearance concentration [6]: 50^b µM | SMs intracellular APEC clearance concentration [7]: 100^c µM | SMs intracellular APEC clearance concentration [8]: 100^c µM | SMs intracellular APEC clearance concentration [9]: 100^c µM | SMs intracellular APEC clearance concentration [10]: >100 µM | SMs intracellular APEC clearance concentration [11]: 50^b µM | SMs intracellular APEC clearance concentration [12]: 25^a µM | Absorbance 260 (APEC O78 [13]): 3.91* | Absorbance 280 (APEC O78 [13]): 2.70* | MBC (APEC O2-211): 50 µM (≈ 21.9 µg/mL) | MIC (APEC O2-211): 50 µM (≈ 21.9 µg/mL) | MBC (APEC O78-53): 50 µM (≈ 21.9 µg/mL) | MIC (APEC O78-53): 50 µM (≈ 21.9 µg/mL) | MBC (APEC O1-63): 100 µM (≈ 43.8 µg/mL) | MIC (APEC O1-63): 50 µM (≈ 21.9 µg/mL) | cytological profile (confocal, FM4-64 / SYTO-9) (APEC O78 [14]): membrane pore formers | MBC (APEC O115): 100 µM (≈ 43.8 µg/mL) | MIC (APEC O115): 100 µM (≈ 43.8 µg/mL) | MBC (APEC O2): 50 µM (≈ 21.9 µg/mL) | MIC (APEC O2): 25 µM (≈ 11 µg/mL) | MBC (APEC O109): 100 µM (≈ 43.8 µg/mL) | MIC (APEC O109): 100 µM (≈ 43.8 µg/mL)

CCN1C(=Cc2ccc3ccccc3[n+]2CC)C=Cc2ccccc21.[Cl-] [SM9]
MBC (APEC O1): 50 µM | MIC (APEC O1): 25 µM | SMs intracellular APEC clearance concentration [1]: 50^b µM | SMs intracellular APEC clearance concentration [2]: 100^c µM | MBC (APEC O8): 50 µM | MIC (APEC O8): 25 µM | reduction of average APEC load in internal organs (Rif^r APEC O78; heart): either exacerbated or did not reduce | reduction of APEC induced mortality (Rif^r APEC O78): 42.86% | reduction of APEC lesions severity (%), Air-sacs (airsacculitis) (Rif^r APEC O78): -88.2% | reduction of APEC lesions severity (%), Heart (pericarditis) (Rif^r APEC O78): -60% | reduction of APEC lesions severity (%), Liver (perihepatitis) (Rif^r APEC O78): -50% | reduction of APEC lesions severity (%), Lung (lung congestion) (Rif^r APEC O78): -16.7% | reduction of APEC load, Heart (Rif^r APEC O78): -0.5 log CFU/g of tissues | reduction of APEC load, Kidney (Rif^r APEC O78): -0.2 log CFU/g of tissues | reduction of APEC load, Liver (Rif^r APEC O78): -0.1 log CFU/g of tissues | reduction of APEC load, Lung (Rif^r APEC O78): -0.9 log CFU/g of tissues | Body weight gain (BWG) (Rif^r APEC O78): 214.93±31.88 | MBEC [3]: 50^b µM | MBC (APEC O35): 50 µM | MIC (APEC O35): 25 µM | effectiveness in clearing intracellular APEC serotypes in all tested cells [4]: most effective | MBC (APEC O15): 100 µM | MIC (APEC O15): 25 µM | MBC (APEC O18): 100 µM | MIC (APEC O18): 25 µM | MIC (APEC O78 [5]): 25 µM | MBC (APEC O78 [5]): 50 µM | SMs intracellular APEC clearance concentration [6]: 100^c µM | SMs intracellular APEC clearance concentration [7]: 100^c µM | SMs intracellular APEC clearance concentration [8]: 100^c µM | SMs intracellular APEC clearance concentration [9]: 100^c µM | SMs intracellular APEC clearance concentration [10]: 50^b µM | SMs intracellular APEC clearance concentration [11]: 50^b µM | SMs intracellular APEC clearance concentration [12]: 50^b µM | Absorbance 260 (APEC O78 [13]): 3.99* | Absorbance 280 (APEC O78 [13]): 2.78* | MBC (APEC O2-211): 25 µM | MIC (APEC O2-211): 25 µM | MBC (APEC O78-53): 25 µM | MIC (APEC O78-53): 25 µM | MBC (APEC O1-63): 100 µM | MIC (APEC O1-63): 50 µM | cytological profile (confocal, FM4-64 / SYTO-9) (APEC O78 [14]): PG synthesis inhibitors | MBC (APEC O115): 50 µM | MIC (APEC O115): 25 µM | MBC (APEC O2): 50 µM | MIC (APEC O2): 25 µM | MBC (APEC O109): 50 µM | MIC (APEC O109): 25 µM

Reference: US20230355597A1, “COMPOUNDS, COMPOSITIONS, AND METHODS FOR THE TREATMENT AND PREVENTION OF AVIAN PATHOGENIC E. COLI (APEC)” (OHIO STATE INNOVATION FOUNDATION, priority 2018, published 2023)
